ChEMBL document CHEMBL5338807, “Design and Synthesis of Bouchardatine Derivatives as a Novel AMP-Activated Protein Kinase Activator for the Treatment of Colorectal Cancer” (J Med Chem, 2023)
pIC50: −log10 of the molar value. Calls of active or inactive are those of the source. No cut-off for these calls is given here.

Tests used:
Type in all cases: functional, cell-based
RKO [1] = assay: Antiproliferative activity against human RKO cells assessed as reduction in cell viability incubated for 24 hrs
RKO [2] = assay: Antiproliferative activity against human RKO cells assessed as inhibition of colony formation at 1 uM measured after 7 days by crystal violet staining based assay; settings: time 7.0 day
RKO [3] = assay: Inhibition of cell migration of human RKO cells at 1 uM incubated for 48 hrs by wound healing assay
RKO [4] = assay: Effect on metabolism in human RKO cells assessed as activation of oxidative phosphorylation at 1 uM measured after 24 hrs by seahorse analysis
RKO [5] = assay: Effect on metabolism in human RKO cells assessed as inhibition of oxidative phosphorylation at 50 mM measured after 24 hrs by seahorse analysis
RKO [6] = assay: Effect on energy metabolism in human RKO cells assessed as decrease in ATP production incubated for 24 hrs by luminescence based analysis

Compound | pIC50 (RKO [1]) | other results
O=Cc1c(-c2nc(NCCc3ccc(C(F)(F)F)cc3)c3ccccc3n2)[nH]c2ccccc12 | 5.38 | –
O=Cc1c(-c2nc(NCC3CC3)c3ccccc3n2)[nH]c2ccccc12 | 5.32 | –
CN(C)CCNc1nc(-c2[nH]c3ccc(F)cc3c2C=O)nc2ccccc12 | 5.77 | –
O=Cc1c(-c2nc3ccccc3c(=O)[nH]2)[nH]c2ccccc12 | < 5.00 | inhibition (RKO [2]): Active; inhibition (RKO [3]): Active; Activity (RKO [4]): Active
COCCCNc1nc(-c2[nH]c3ccccc3c2C=O)nc2ccccc12 | 5.96 | –
Cc1c(-c2nc(NCCCN3CCN(C)CC3)c3ccccc3n2)[nH]c2ccccc12 | < 5.00 | –
Cc1ccc2[nH]c(-c3nc(NCCCN(C)C)c4ccccc4n3)c(C=O)c2c1 | 5.70 | –
CN(C)CC(C)(C)CNc1nc(-c2[nH]c3ccccc3c2C=O)nc2ccccc12 | 5.28 | –
CN(C)CCCNc1nc(-c2[nH]c3ccccc3c2C(=O)O)nc2ccccc12 | 5.28 | –
C=Cc1c(C)nc(-c2[nH]c3ccccc3c2C(C)=O)nc1NCCCN1CCCC1 | < 5.00 | –
Cc1ccc2[nH]c(-c3nc(NCCN(C)C)c4ccccc4n3)c(C=O)c2c1 | 6.15 | –
O=Cc1c(-c2nc(NCC3CCC3)c3ccccc3n2)[nH]c2ccccc12 | 5.21 | –
Cc1ccc(S(=O)(=O)Nc2nc(-c3[nH]c4ccccc4c3C=O)nc3ccccc23)cc1 | < 5.00 | –
CN(C)CCCN(CCCN(C)C)c1nc(-c2[nH]c3ccccc3c2C=O)nc2ccccc12 | 5.74 | –
O=Cc1c(-c2nc(NCCN3CCCC3)c3ccccc3n2)[nH]c2ccccc12 | 5.96 | –
O=Cc1c(-c2nc(NC(=O)c3cccnc3)c3ccccc3n2)[nH]c2ccccc12 | < 5.00 | –
CN(C)CCCNc1nc(-c2[nH]c3ccccc3c2C=O)nc2ccccc12 | 5.77 | inhibition (RKO [2]): Active; inhibition (RKO [3]): Active; Activity (RKO [4]): Active
Cc1ccc(CCNc2nc(-c3[nH]c4ccccc4c3C=O)nc3ccccc23)cc1 | 5.74 | –
CN(C)C(=N)NC(=N)N | – | inhibition (RKO [5]): Active; Activity (RKO [6]): Active
O=Cc1c(-c2nc(NCCCC(=O)N3CCCC3)c3ccccc3n2)[nH]c2ccccc12 | 5.06 | –
CCCC(=O)Nc1nc(-c2[nH]c3ccccc3c2C=O)nc2ccccc12 | < 5.00 | –
O=Cc1c(-c2nc(NC(C3CC3)C3CC3)c3ccccc3n2)[nH]c2ccccc12 | 5.22 | –
CN(C)CCNc1nc(-c2[nH]c3ccc(Cl)cc3c2C=O)nc2ccccc12 | 5.28 | –
CN(C)CCCNc1nc(-c2[nH]c3ccc(Cl)cc3c2C=O)nc2ccccc12 | 5.39 | –
CN(C)c1nc(-c2[nH]c3ccccc3c2C=O)nc2ccccc12 | 5.32 | –
O=Cc1c(-c2nc(NC3CC3)c3ccccc3n2)[nH]c2ccccc12 | 5.41 | –
